Measured values as given in patent US10253002B2, “Compounds and methods of treating infections” (Neoculi Pty Ltd., priority 2013, dated 2019).
Several values for one entry are separate records, joined by “and”; a condition that tells them apart may be missing. Identical values can stand only once.

Key:
Experiment in all cases: Broth microdilution MIC, Example 7 (NCL812 and analogues)
[1] = test system: VRE; assay type: cell-based, Enterococcus spp.; settings: 24 hours, duplicate lines per compound
Summary of the method: (§1)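 Turbidity read visually and then at 600 nm defined the MIC (μg/ml), comparing drug-containing wells with a growth-control well lacking antimicrobial. Testing followed the CLSI broth microdilution method, in duplicate, using two strains per organism group.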

[2] = test system: Escherichia coli; assay type: cell-based; settings: E. coli; 24 hours; duplicate lines per compound
[3] = test system: MRSA; assay type: cell-based, Staphylococcus aureus; settings: 24 hours, duplicate lines per compound
Summary of the method: as §1

[4] = test system: Pseudomonas aeruginosa; assay type: cell-based; settings: P. aeruginosa; 24 hours; duplicate lines per compound

| Structure (SMILES) | MIC (μg/ml) at 24 hours, VRE 1 [1] | MIC (μg/ml) at 24 hours, VRE 2 [1] | MIC (μg/ml) at 24 hours, E. coli [2] [µg/mL] | MIC (μg/ml) at 24 hours, MRSA 1 [3] | MIC (μg/ml) at 24 hours, MRSA 2 [3] | MIC (μg/ml) at 24 hours, P. aeruginosa [4] [µg/mL] |
| --- | --- | --- | --- | --- | --- | --- |
| Cl.N=C(NN=Cc1ccc(F)c(F)c1)NN=Cc1ccc(F)c(F)c1 [NCL 123] | 4 µg/mL | 4 µg/mL | >128 | 16 µg/mL and 32 µg/mL | 4 µg/mL and 8 µg/mL | >128 |
| Cl.N=C(NN=Cc1c(O)ccc2ccccc12)NN=Cc1c(O)ccc2ccccc12 [NCL 124] | >128 µg/mL | >128 µg/mL | >128 | >128 µg/mL | >128 µg/mL | >128 |
| COc1ccc(C=NNC(=N)NN=Cc2ccc(OC)c(O)c2)cc1O.Cl [NCL 125] | >128 µg/mL | >128 µg/mL | >128 | >128 µg/mL | >128 µg/mL | >128 |
| C#Cc1cccc(C=NNC(=N)NN=Cc2cccc(C#C)c2)c1.Cl [NCL 126] | 4 µg/mL and 8 µg/mL | >128 µg/mL | >128 | >128 µg/mL | >128 µg/mL | >128 |
| Cl.N=C(N/N=C/c1ccc(Cl)cc1Cl)N/N=C/c1ccc(Cl)cc1Cl [NCL 127] | >128 µg/mL | >128 µg/mL | >128 | >128 µg/mL | >128 µg/mL | >128 |
| Cl.N=C(N/N=C/c1c(F)c(F)c(F)c(F)c1F)N/N=C/c1c(F)c(F)c(F)c(F)c1F [NCL 128] | >128 µg/mL | >128 µg/mL | >128 | >128 µg/mL | >128 µg/mL | >128 |
| Cl.N=C(N/N=C/c1ccccc1Br)N/N=C/c1ccccc1Br [NCL 129] | >128 µg/mL | >128 µg/mL | >128 | >128 µg/mL | >128 µg/mL | >128 |
| COc1cc(C=NNC(=N)NN=Cc2cc(Br)c(OC)c(OC)c2)cc(Br)c1OC.Cl [NCL 130] | >128 µg/mL | >128 µg/mL | >128 | >128 µg/mL | >128 µg/mL | >128 |
| Cl.N=C(NN=Cc1cccc(Br)c1)NN=Cc1cccc(Br)c1 [NCL 131] | 4 µg/mL | >128 µg/mL | >128 | >128 µg/mL | >128 µg/mL | >128 |
| Cl.N=C(NN=CC1=C(Cl)c2cc(F)ccc2OC1)NN=CC1=C(Cl)c2cc(F)ccc2OC1 [NCL 132] | >128 µg/mL | >128 µg/mL | >128 | >128 µg/mL | >128 µg/mL | >128 |
| Cl.N=C(NN=Cc1cc(Br)co1)NN=Cc1cc(Br)co1 [NCL 133] | >128 µg/mL | >128 µg/mL | >128 | >128 µg/mL | >128 µg/mL | >128 |
| Cl.N=C(N/N=C/c1ccc(Br)cc1)N/N=C/c1ccc(Br)cc1 [NCL 134] | >128 µg/mL | >128 µg/mL | >128 | >128 µg/mL | >128 µg/mL | >128 |

Now from value to molecule:

| MIC (μg/ml) at 24 hours, VRE 1 [1] | MIC (μg/ml) at 24 hours, VRE 2 [1] | MIC (μg/ml) at 24 hours, E. coli [2] [µg/mL] | MIC (μg/ml) at 24 hours, MRSA 1 [3] | MIC (μg/ml) at 24 hours, MRSA 2 [3] | MIC (μg/ml) at 24 hours, P. aeruginosa [4] [µg/mL] | Structure (SMILES) |
| --- | --- | --- | --- | --- | --- | --- |
| >128 µg/mL | >128 µg/mL | >128 | >128 µg/mL | >128 µg/mL | >128 | COc1cc(Br)c(C=NNC(=N)NN=Cc2cc(OC)c(OC)cc2Br)cc1OC.Cl [NCL 135] |
| 32 µg/mL | 128 µg/mL | >128 | 64 µg/mL | 128 µg/mL | >128 | CCCCc1ccc(C=NNC(=N)NN=Cc2ccc(CCCC)cc2)cc1.Cl [NCL 136] |
| >128 µg/mL | >128 µg/mL | >128 | >128 µg/mL | >128 µg/mL | >128 | Cl.N=C(NN=Cc1c(Cl)cccc1Cl)NN=Cc1c(Cl)cccc1Cl [NCL 137] |
| >128 µg/mL | >128 µg/mL | >128 | >128 µg/mL | 32 µg/mL | >128 | Cl.N=C(NN=CC(=Cc1ccccc1)c1ccccc1)NN=CC(=Cc1ccccc1)c1ccccc1 [NCL 138] |
| >128 µg/mL | >128 µg/mL | >128 | >128 µg/mL | >128 µg/mL | >128 | Cl.N=C(NN=Cc1cnc2ccccc2c1)NN=Cc1cnc2ccccc2c1 [NCL 139] |
| – | 8 µg/mL and 16 µg/mL | >128 | – | 16 µg/mL and 32 µg/mL | >128 | CSc1ccc(C=NNC(=N)NN=Cc2ccc(SC)cc2)cc1.Cl [NCL 140] |
| 16 µg/mL | >128 µg/mL | >128 | >128 µg/mL | >128 µg/mL | >128 | Cl.N=C(NN=Cc1csc2ccc(Cl)cc12)NN=Cc1csc2ccc(Cl)cc12 [NCL 141] |
| >128 µg/mL | >128 µg/mL | >128 | >128 µg/mL | >128 µg/mL | >128 | Cl.N=C(NNCc1ccccc1)NNCc1ccccc1 [NCL 142] |
| 8 µg/mL | 8 µg/mL | >128 | 16 µg/mL | 16 µg/mL | >128 | CC(=NNC(=N)NN=C(C)c1ccccc1)c1ccccc1.Cl [NCL 143] |
| >128 µg/mL | >128 µg/mL | >128 | >128 µg/mL | >128 µg/mL | >128 | Cl.N=C(NN=Cc1ccc(Br)o1)NN=Cc1ccc(Br)o1 [NCL 144] |
| >128 µg/mL | >128 µg/mL | >128 | >128 µg/mL | >128 µg/mL | >128 | Cl.N=C(NN=Cc1ccc(Cl)o1)NN=Cc1ccc(Cl)o1 [NCL 145] |
| 16 µg/mL | 16 µg/mL | >128 | 8 µg/mL | 16 µg/mL | >128 | Cl.N=C(NN=Cc1ccc2[nH]ccc2c1)NN=Cc1ccc2[nH]ccc2c1 [NCL 146] |
| >128 µg/mL | >128 µg/mL | >128 | >128 µg/mL | >128 µg/mL | >128 | Cl.N=C(NN=Cc1cnc2ccccc2n1)NN=Cc1cnc2ccccc2n1 [NCL 147] |
| >128 µg/mL | >128 µg/mL | >128 | >128 µg/mL | >128 µg/mL | >128 | Cl.N=C(NN=Cc1ccc(C=CCC(=O)O)cc1)NN=Cc1ccc(C=CCC(=O)O)cc1 [NCL 148] |
| >128 µg/mL | >128 µg/mL | >128 | >128 µg/mL | >128 µg/mL | >128 | Cl.N=C(N/N=C/c1ccncc1)N/N=C/c1ccncc1 [NCL 149] |
| >128 µg/mL | >128 µg/mL | >128 | 128 µg/mL | 128 µg/mL | >128 | COc1ccc(C=CC=NNC(=N)NN=CC=Cc2ccc(OC)cc2)cc1.Cl [NCL 150] |
